The source of these data is ChEMBL document CHEMBL5465560, “Selectivity Literature for EUbOPEN Chemogenomic Library” (2024).

The target of test [1] is Tyrosine-protein kinase JAK1 (Homo sapiens, UniProt P23458). As to the kind of experiment: Selectivity interaction (Ambit KINOMEscan and KiNATiv profiling in Jurkat cells) EUB0000090b JAK1. In kind it is cell-based. Particulars: at 1 µM.
The target of test [2] is T1, Phosphatidylinositol 4,5-bisphosphate 3-kinase catalytic subunit delta isoform (Homo sapiens) (UniProt O00329).
T1 sequence (whole entry): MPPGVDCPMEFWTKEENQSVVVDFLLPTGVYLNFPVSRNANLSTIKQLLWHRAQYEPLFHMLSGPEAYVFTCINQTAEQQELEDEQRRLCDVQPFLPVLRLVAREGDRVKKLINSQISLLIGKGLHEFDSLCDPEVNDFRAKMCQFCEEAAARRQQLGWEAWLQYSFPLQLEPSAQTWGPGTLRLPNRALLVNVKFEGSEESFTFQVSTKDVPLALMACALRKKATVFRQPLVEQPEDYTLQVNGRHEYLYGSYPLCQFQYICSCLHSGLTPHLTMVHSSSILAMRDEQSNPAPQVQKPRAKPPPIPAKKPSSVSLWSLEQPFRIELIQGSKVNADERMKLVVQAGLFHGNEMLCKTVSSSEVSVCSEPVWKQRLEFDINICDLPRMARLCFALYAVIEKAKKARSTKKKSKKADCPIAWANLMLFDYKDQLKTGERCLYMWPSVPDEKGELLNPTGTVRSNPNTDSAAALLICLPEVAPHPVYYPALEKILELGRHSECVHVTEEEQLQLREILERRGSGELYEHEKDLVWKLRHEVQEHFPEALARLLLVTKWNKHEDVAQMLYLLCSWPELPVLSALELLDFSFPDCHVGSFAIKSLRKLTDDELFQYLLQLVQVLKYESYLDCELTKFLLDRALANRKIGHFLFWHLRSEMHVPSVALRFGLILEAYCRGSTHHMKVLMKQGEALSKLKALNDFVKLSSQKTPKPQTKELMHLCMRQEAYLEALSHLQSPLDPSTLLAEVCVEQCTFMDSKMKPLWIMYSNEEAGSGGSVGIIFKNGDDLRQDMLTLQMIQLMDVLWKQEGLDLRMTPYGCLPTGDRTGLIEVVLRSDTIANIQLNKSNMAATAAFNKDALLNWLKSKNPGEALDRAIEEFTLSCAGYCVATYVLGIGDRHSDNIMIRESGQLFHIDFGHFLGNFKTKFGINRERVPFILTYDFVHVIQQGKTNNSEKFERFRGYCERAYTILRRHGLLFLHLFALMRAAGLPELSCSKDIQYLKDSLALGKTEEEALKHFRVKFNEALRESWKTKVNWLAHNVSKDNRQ
As to the kind of experiment: Selectivity interaction (KinomeScan (DiscoverX)) EUB0000045b PIK3CD.

For test [3], the target named is Tyrosine-protein kinase ABL1 (Homo sapiens, UniProt P00519). In words: Selectivity interaction (KinomeScan (DiscoverX)) EUB0000666a ABL1. Particulars: at 10 µM.
Tyrosine-protein kinase ABL1, sequence (P00519 whole entry): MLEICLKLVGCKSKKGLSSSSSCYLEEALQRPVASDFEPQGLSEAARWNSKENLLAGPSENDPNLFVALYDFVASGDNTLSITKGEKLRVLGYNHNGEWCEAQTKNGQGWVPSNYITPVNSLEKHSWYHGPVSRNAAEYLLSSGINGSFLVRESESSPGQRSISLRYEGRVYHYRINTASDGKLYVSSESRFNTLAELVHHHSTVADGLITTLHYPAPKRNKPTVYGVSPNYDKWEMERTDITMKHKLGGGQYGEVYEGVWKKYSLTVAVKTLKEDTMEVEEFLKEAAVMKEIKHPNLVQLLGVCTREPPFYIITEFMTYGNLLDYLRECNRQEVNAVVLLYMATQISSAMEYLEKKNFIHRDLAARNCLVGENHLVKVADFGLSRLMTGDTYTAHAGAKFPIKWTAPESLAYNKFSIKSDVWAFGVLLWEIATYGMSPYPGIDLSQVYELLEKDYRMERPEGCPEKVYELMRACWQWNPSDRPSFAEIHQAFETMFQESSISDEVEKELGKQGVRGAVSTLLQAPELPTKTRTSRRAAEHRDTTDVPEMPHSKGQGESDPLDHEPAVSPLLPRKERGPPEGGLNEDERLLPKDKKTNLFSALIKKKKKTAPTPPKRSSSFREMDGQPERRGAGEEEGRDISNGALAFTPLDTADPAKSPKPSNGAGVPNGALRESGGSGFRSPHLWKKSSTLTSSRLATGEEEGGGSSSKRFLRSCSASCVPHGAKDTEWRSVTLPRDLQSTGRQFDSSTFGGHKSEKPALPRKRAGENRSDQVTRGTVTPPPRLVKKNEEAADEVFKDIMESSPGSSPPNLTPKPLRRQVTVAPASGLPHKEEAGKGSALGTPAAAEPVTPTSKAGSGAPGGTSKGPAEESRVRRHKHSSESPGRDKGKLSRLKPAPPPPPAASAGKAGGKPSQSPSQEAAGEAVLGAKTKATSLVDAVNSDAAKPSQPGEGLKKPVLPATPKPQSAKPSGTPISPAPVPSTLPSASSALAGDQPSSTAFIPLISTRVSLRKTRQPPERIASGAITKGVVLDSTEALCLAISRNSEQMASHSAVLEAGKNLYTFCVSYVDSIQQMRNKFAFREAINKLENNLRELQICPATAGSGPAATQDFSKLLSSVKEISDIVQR
Test [4] has as its target Ribosomal protein S6 kinase alpha-3 (Homo sapiens, UniProt P51812). As to the kind of experiment: Selectivity interaction (ActivX KiNativ screen (kinase selectivity in THP-1 cell lysates)) EUB0000639a RPS6KA3. The following applies: lysate, at 5 µM. The format is subcellular.
In test [5] the target is STE20-like serine/threonine-protein kinase (Homo sapiens, UniProt Q9H2G2). As to the kind of experiment: Selectivity interaction (KinomeScan (DiscoverX)) EUB0000595a SLK. Particulars: at 10 µM.
STE20-like serine/threonine-protein kinase, sequence (Q9H2G2 whole entry, looked up): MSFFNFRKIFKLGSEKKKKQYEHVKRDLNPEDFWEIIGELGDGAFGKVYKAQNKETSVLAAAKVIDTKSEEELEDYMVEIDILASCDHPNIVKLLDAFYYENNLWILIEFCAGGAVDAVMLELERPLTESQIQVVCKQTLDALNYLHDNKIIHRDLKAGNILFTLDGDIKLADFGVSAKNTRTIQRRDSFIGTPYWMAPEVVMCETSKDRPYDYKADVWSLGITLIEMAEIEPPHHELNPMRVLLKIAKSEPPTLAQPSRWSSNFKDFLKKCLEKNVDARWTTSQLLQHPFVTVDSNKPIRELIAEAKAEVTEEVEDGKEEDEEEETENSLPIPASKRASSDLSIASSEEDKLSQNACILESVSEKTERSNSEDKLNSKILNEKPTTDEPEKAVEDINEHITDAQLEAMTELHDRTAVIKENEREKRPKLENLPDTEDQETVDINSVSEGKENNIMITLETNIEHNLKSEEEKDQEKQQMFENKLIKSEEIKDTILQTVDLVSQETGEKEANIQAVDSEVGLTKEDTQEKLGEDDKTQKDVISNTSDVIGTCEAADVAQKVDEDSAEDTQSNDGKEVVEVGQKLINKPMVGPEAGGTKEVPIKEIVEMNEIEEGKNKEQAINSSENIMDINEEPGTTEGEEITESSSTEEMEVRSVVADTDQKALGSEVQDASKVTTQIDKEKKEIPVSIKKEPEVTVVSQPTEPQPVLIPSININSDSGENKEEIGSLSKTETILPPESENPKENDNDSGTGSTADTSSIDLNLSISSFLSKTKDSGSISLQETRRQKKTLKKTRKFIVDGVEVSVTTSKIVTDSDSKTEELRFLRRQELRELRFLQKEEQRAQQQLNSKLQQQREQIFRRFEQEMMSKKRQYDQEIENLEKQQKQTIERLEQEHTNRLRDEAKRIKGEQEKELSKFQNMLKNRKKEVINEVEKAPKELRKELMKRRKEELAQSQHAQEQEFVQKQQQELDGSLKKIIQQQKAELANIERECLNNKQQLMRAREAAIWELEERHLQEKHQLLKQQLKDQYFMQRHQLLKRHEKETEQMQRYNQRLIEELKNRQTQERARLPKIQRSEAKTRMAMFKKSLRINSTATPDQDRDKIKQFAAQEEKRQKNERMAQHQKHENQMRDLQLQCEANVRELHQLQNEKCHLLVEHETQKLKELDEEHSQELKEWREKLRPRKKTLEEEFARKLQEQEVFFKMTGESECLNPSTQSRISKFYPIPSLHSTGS
The target of test [6] is T2, Ephrin type-A receptor 3 (Homo sapiens) (UniProt P29320).
T2 sequence (whole entry): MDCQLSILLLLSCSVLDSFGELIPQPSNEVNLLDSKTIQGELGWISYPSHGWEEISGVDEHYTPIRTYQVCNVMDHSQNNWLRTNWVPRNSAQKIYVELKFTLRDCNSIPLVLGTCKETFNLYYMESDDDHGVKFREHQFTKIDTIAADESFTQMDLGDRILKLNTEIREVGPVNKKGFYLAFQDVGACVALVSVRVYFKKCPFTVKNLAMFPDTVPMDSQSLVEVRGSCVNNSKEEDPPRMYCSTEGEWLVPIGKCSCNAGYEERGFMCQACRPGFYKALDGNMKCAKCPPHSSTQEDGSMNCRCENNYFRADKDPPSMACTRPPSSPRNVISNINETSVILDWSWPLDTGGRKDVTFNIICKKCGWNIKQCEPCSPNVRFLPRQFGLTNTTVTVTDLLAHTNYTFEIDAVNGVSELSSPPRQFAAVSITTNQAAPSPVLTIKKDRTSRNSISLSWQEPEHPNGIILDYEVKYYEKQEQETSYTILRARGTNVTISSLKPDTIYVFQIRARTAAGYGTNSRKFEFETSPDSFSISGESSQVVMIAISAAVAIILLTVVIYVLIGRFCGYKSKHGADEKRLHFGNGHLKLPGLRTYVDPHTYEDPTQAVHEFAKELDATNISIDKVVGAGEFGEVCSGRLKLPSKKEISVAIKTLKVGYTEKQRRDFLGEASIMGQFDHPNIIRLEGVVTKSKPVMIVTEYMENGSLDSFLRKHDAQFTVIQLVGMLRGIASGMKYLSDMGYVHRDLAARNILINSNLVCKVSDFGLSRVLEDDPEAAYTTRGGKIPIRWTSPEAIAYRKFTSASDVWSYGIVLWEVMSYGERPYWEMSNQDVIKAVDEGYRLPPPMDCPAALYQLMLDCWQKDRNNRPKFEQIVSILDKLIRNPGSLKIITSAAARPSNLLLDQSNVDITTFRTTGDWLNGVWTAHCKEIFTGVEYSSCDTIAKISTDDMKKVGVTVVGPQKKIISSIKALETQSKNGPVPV
In words: Selectivity interaction (KinomeScan (DiscoverX)) EUB0001619a EPHA3. Particulars: at 1 µM.

Tyrosine-protein kinase JAK1, sequence (P23458 whole entry, canonical isoform): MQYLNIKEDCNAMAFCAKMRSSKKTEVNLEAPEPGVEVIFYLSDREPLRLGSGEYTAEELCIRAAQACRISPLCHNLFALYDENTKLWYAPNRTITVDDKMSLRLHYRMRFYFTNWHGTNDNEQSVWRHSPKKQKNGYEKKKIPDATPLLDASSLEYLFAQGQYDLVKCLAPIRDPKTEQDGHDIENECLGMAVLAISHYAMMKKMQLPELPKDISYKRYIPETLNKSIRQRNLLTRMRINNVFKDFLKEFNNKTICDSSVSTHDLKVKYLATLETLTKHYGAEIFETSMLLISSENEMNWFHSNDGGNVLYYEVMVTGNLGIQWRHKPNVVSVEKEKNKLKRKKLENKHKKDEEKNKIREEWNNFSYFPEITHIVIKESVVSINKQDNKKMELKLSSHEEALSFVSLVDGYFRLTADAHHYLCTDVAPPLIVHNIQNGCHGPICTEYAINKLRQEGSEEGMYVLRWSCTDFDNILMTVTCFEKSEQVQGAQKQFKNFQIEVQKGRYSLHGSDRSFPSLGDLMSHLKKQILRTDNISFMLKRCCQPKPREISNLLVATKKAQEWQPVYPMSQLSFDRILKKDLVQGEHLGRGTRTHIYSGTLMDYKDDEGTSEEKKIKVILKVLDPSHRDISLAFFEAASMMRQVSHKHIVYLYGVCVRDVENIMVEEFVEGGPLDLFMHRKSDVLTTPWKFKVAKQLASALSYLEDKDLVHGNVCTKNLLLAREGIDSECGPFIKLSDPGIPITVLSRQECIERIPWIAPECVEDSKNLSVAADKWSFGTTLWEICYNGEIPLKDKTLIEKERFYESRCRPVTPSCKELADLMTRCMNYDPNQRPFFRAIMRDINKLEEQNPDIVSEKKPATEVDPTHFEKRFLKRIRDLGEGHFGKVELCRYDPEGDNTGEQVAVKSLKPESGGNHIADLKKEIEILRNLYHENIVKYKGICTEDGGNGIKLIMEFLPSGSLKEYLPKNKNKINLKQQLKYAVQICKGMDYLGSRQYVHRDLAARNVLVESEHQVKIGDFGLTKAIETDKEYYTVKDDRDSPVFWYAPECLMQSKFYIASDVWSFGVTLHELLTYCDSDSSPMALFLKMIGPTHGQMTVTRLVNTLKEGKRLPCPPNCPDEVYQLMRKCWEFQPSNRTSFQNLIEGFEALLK
Ribosomal protein S6 kinase alpha-3, sequence (P51812 whole entry): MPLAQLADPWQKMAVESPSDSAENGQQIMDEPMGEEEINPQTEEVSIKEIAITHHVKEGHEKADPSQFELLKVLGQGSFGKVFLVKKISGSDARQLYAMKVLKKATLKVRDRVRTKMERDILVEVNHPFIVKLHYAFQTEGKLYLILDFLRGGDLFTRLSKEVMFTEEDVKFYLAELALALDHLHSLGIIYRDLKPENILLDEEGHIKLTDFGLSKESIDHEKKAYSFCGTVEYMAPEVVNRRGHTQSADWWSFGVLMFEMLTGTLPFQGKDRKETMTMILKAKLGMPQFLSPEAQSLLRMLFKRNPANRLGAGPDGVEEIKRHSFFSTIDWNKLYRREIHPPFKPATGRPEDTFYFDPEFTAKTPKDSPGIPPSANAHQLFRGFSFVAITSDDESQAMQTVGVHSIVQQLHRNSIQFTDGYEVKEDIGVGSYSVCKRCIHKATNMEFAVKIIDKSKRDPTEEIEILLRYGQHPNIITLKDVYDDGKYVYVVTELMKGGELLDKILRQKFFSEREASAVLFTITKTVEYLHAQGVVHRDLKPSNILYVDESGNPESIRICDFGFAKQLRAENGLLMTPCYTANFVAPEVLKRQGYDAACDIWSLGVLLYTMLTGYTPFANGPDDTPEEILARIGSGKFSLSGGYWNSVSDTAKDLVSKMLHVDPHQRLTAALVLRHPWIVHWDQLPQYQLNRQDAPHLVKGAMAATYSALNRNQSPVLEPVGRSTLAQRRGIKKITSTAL

`CN(C)C/C=C/C(=O)Nc1ccc(C(=O)N2CCCC(Nc3ncc(Cl)c(-c4c[nH]c5ccccc45)n3)C2)cc1` (configuration not stated): in test [1], the % of control was found to be 86%.
Take `C=CC(=O)Nc1cc(-n2c(=O)ccc3cnc4ccc(-c5ccc(NS(C)(=O)=O)cc5)cc4c32)ccc1C`: the % of control in test [2] (at 1 µM) turned out to be 73%; in test [2] (at 10 µM) it was 100%.
Compound `O=C(NOC[C@H](O)CO)c1ccc(F)c(F)c1Nc1ccc(I)cc1F` displayed a % of control in test [3] of 97%.
As for `CC[C@@H]1[C@H](F)C(=O)N[C@@H]1COc1nccc2cc(C(N)=O)c(OC)cc12` [ZIMLOVISERTIB], the % of inhibition in test [4] was -3%.
In test [5], `COCC(=O)NC/C=C/c1ccc2ncnc(Nc3ccc(Oc4ccc(C)nc4)c(C)c3)c2c1` [CP-724714] registered a % of control of 60%.
In test [6], `N#Cc1cccc(-c2c[nH]c3ncnc(N4CCOCC4)c23)c1` returned a % of control of 66%.
